# Laboratory results: PMC4309438, “Capacitance-modulated transistor detects odorant binding protein chiral interactions” (Nature Communications, 2015)
# Like-named read-outs stand apart in the source and are kept apart here.
# How the values were obtained:
# [1] = target: T1, pOBP-SAM (pOBP-F88W immobilized on gold gate) (Sus scrofa, UniProt P81245, F88W); assay: WGOFET with pOBP-SAM gate: binding curves from ΔI/I electronic response; set-up: species or system porcine; conditions: for α (Hill degree of cooperativity): Hill's isotherm fit of binding curve of Fig. 5b; for Kd: pOBP-SAM gate, fit of ΔI/I binding curve of Fig. 5b; for ΔC/C, fractional change of pOBP-SAM capacitance (measured chiral response): at saturation, extracted from source-drain current (Fig. 8a); for plateau response at saturation (ΔI/I): best-fit parameter of binding curve of Fig. 5b, IDS at VG=−0.5 V; for WGOFET response at saturation: binding curves of Fig. 5b; for maximum fractional decrease of IDS: control experiment of Fig. 6: same pOBP-SAM gate exposed alternately to the two enantiomers, rinsed between exposures
# T1 construct: His6 (N); made in house; host or cells: Escherichia coli BL21(DE3), pET5b vector
# T1 sequence (P81245 1-157 F88W): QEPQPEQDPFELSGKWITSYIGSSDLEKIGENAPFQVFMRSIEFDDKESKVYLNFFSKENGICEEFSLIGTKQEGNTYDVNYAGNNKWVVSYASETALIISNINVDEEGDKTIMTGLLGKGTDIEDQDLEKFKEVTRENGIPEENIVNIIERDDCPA
# Description: where Ci≈COBP is the capacitance per unit area. In Fig. 5a, the pOBP-WGOFET transfer-characteristics (IDS versus VG at VDS=−0.5 V) are reported for a device gated with a pristine pOBP-SAM (baseline, red curve) along with the traces measured after exposing the pOBP-SAM to progressively higher concentrations of (S)-(+)carvone (signal, black curves). Apparently, a significant degree of current decrease can be measured even at very low ligand concentrations. In the Supplementary Fig. 8, the gate leakage currents (IG) for the data of Fig. 5a are reported for comparison. […] From the transfer curve the COBP and μFET product, as well as the VT values are extracted. μFET can be as high as (1.1±0.2) × 10^−1 cm^2 V^−1 s^−1, showing a very good level of performance for the pOBP-SAM WGOFET[37]. The fractional current decrease upon binding was evaluated from the transfer curves as ΔI/I=[(I−I0)I0^−1] with I and I0 being IDS values at VG=−0.5 V for the signal and for the base-line curves, respectively. ΔI/I was taken as the WGOFET electronic response as this normalizes the device-to-device variation in FET biosensors, resulting in high response reproducibility.
# The fitting of the (S)-(+)-carvone binding curve (red solid line in Fig. 5b) is performed using Langmuir’s isotherm Y=bMAX(X/(KFET+X)), where Y is the ΔI/I electronic response proportional, through bmax, to the degree of saturation. X is the ligand concentration and KFET is the dissociation constant. The fitting of the (R)-(−)-carvone (magenta solid curve in Fig. 5b) was calculated using Hill’s binding model, also used to model the data relevant to the 2-phenylethanol (blue curve). The Hill’s equation is Y=bMAX(X^α/(KFET+X^α)), with α giving the degree of cooperativity (α=1 for non-cooperative, α>1 and α<1 for positive and negative cooperativity, respectively). The fit of the S-(+)-carvone data to a Langmuir’s non-cooperative binding isotherm[39] returns a dissociation constant KFET^+=0.81±0.05 nM and a plateau response at a saturation of (ΔI/I)^+=0.62±0.01, while the limit-of-detection is 50 pM and the limit-of-quantification is 150 pM. The detection of carvone enantiomers here performed is about 6 orders of magnitude better than the determinations performed with a back-gate device. A comparison between the two systems is not straightforward as they hold different device structures and different recognition elements. However, it is a fact that in the WGOFET a direct interaction between the bio-recognition element layer and an electronic interface, is created. The R-(−)-carvone data could only be accounted for by a Hill’s binding isotherm[38] that, through the α coefficient, models the extent of cooperativity of a given binding site. […] The fitting of the S-(+)-carvone to the Hill’s isotherm, performed as control, returns a KFET=0.4±0.2 nM and an α=1.1±0.1, consistent with the Langmuir’s fit. The errors are taken as 1 s.d., as for all data presented.
# PBTTT-C14 was dissolved (7 mg ml^−1) in a mixture of 1,2-dichlorobenzene and chloroform (9:1). Gold source (S) and drain (D) interdigitated electrodes were photo-lithographically defined on a flexible substrate. The distance between two differently biased fingers is the channel length (L), while the perimeter of each set of equipotential fingers is the channel width (W); they are 5 μm and 10^4 μm, respectively. The substrate with patterned electrodes was spin coated with a PBTTT-C14 solution at 7,000 r.p.m. for 60 s and annealed at 120 °C for 10 min. A gold plate with an area of ~3 10^−2 cm^2 served as the gate (G) electrode. The SAM functionalizing protocol[52] involved a 50 mM solution of 3-mercaptopropionic acid (3MPA) in ethanol containing 5% acetic acid. N2 was bubbled through the 3MPA solution for at least 10 min to remove dissolved oxygen. The gold electrodes were immersed into the 3MPA solution and kept in the dark under N2 for 18 h at 22 °C. […]
# [2] = target: T2, pOBP-mutant-F88W (Sus scrofa, UniProt P81245, F88W); assay: Competitive fluorescent binding assay of pOBP in solution (1-AMA probe); set-up: species or system porcine; conditions: pOBP and 1-AMA probe at 1 μM, 10 mM phosphate buffer pH 7.4, room temperature, calculated from IC50, read-out: dissociation constant KSol
# T2 construct: His6 (N); made in house; host or cells: Escherichia coli BL21(DE3), pET5b vector
# T2 sequence (P81245 1-157 F88W): T1 sequence (P81245 1-157 F88W)
# Description: Emission fluorescence spectra were recorded using a Perkin Elmer LS55 instrument at room temperature, with a 1 cm light path quartz cuvette and 5 nm slits for both excitation and emission. The affinity of binding of pOBP was measured using the fluorescence probe 1-AMA as previously reported. About 1 μM pOBP-F88W solution in 10 mM phosphate buffer, pH 7.4, was titrated with aliquots of 1 mM 1-AMA in methanol to final concentrations of 0.25–8 μM. The probe was excited at 375 nm and the fluorescence spectra were recorded between 400 to 570 nm, monitoring the signals between 480 and 490 nm. The dissociation constant (K1-AMA) for the OBP/1-AMA complex was calculated using the equation y=(Bmax × x)/(K1-AMA+x), where y is the degree of saturation, Bmax is the number of maximum binding sites, and K1-AMA is the dissociation constant. The calculation was run using the software Sigma Plot and a single binding site was considered for the OBP.
# The affinity of pOBP-F88W towards S-(+)-carvone and R-(−)-carvone and 2-phenylethanol was measured in competitive binding assays, using both pOBP and probe at 1 μM as the final concentration. The ligand solutions, with concentrations ranging from 2 to 20 μM, were prepared in 10 mM phosphate buffer pH 7.4 and used for the binding experiments. Dissociation constants of competitors were calculated from the corresponding IC50 values, using the equation: KSol=[IC50]/1+[1-AMA]/K1-AMA, where [1-AMA] is the free concentration of the fluorescence probe and K1-AMA is the dissociation constant of the complex OBP/1-AMA.
# [3] = tested on: human; set-up: method as in earlier work; conditions: perceived as spearmint or caraway odours; cited from earlier work
# [4] = read-out: dissociation constant KFET (Hill's isotherm fit)
Structure (SMILES),α (Hill degree of cooperativity) [1],"Kd [1, 4] [nM]",Kd [2] [nM],"ΔC/C, fractional change of pOBP-SAM capacitance (measured chiral response) [1]",plateau response at saturation (ΔI/I) [1],WGOFET response at saturation [1] [%],maximum fractional decrease of IDS [1],human threshold for detection (odour) [3] [nM],limit-of-detection ([1]; pOBP-SAM WGOFET) [pM],limit-of-quantification ([1]; pOBP-SAM WGOFET) [pM],"Kd ([1]; three devices, read-out: dissociation constant KFET (Langmuir's isotherm fit)) [nM]"
OCCc1ccccc1 [2-phenylethanol],0.3±0.1,700 ± 330,~40000,,,,,,,,
C=C(C)[C@@H]1CC=C(C)C(=O)C1 [(R)-(−)-carvone],0.5±0.1,20 ± 20,1220 ± 50,−0.17,0.17±0.02,< 20,much higher response at saturation,30,,,
C=C(C)[C@H]1CC=C(C)C(=O)C1 [(S)-(+)-carvone],1.1±0.1,0.4 ± 0.2,500 ± 10,−0.485,0.62±0.01,> 60,~ 60%,420,50,150,0.81 ± 0.05
